Experiment [1] concerns human primary myeloid cells (osteoclasts). Put plainly: Mitochondrial phenotype assessment in osteoclasts (electron microscopy). In kind it is cell-based. The conditions noted are these: rotenone 100 nM; Figure 3B. On the procedure:
Peripheral blood mononuclear cells were isolated from human whole blood by differential centrifugation over Ficoll-Paque PLUS (GE Healthcare Biosciences). CD14+ monocytes were purified from the freshly isolated PBMCs using the CD14+ selection kit (StemCells. UK) by positive magnetic selection according to manufacturer's instructions . Cells were differentiated to osteoclasts by adding 1×10^6 ml-1 cells in complete minimum essential medium-alpha supplemented with 10% heat inactivated fetal bovine serum (FBS, Invitrogen,UK),2mM glutamine (Invitrogen,UK) 20U ml-1 penicillin, 100ug/ml streptomycin (Sigma ALdrich, UK) along with 25ng ml-1 recombinant human M-CSF (Peprotech, UK) and 25 ng ml-1 RANKL for 6 days. On th^e 6th day, the cells were treated with test compound (final concentration 0.03-1 uM, 0,05 % DMSO) or a control, rotenone (100 nM).
Adherent cells were fixed in 2.5% glutaraldehyde in 0.1 M cacodylate buffer, pH 7.4, for 1 h, post fixed with 1% osmium tetroxide (Electron Microscopy Science), dehydrated in a graded series of ethanol, and embedded in Epon (Electron Microscopy Science). The embedded samples were sectioned by an ultramicrotome (Ultracut E, Richert-Jung, Leica Microsystem). Thin sections (90 nm thick) were collected on 300 mesh nickel grids and stained with uranyl acetate (Electron Microscopy Science) and lead citrate. […]

For experiment [2], the system named is human primary lung fibroblasts. Put plainly: Cell proliferation (BrdU incorporation, nucleus counts) with compound washout. In kind it is cell-based. The conditions noted are these: for cell proliferation (BRdU incorporation and nucleus counts): pyruvate-restricted conditions, 24-hours compound treatment; for recovery of cell proliferation after compound washout (BrdU incorporation and nucleus counts): 24-hours incubation in pyruvate-free media, highest tested concentration. On the procedure:
Human primary lung fibroblasts were plated at a concentration of 5 × 10^3 cells/well in 96well plates in 100 µL DMEM complete media (5.5 mM glucose, 2 mM L-glutamine, and 1 mM pyruvate) containing 1% penicillin-streptomycin and 10% heat-inactivated foetal bovine serum. Cells were incubated overnight at 37°C / 5% CO2 to allow cell attachment. On the day of the treatment, cell culture medium was removed, and the cells were washed three times with Gibco™ DMEM, no glucose, no L-glutamine, no pyruvate, no phenol red + 1% penicillin-streptomycin and 10% heat inactivated foetal bovine serum (termed `basal' culture medium). Fresh cell culture media (without pyruvate) was added to the wells. Test compounds were prepared as 10x final concentration solutions in pyruvate-free medium. Following 24-hours compound treatment (in 5% CO2,37°C cell incubator), spent medium was removed from all wells and were thoroughly washed thrice with basal cell culture medium. For washout assay condition, 100 µL of pyruvate-free media was added per well. For No Washout, 90 µL of pyruvate-free media and 10 µL of 10x final assay concentration prepared test agents (or assay media) were added per well. Recovery of cell proliferation was measured after 24-hours incubation at 37°C / 5% CO2 with either pyruvate-free media (without re-addition of the compound) or re-addition of compounds in pyruvate-free media.
To assess nucleus counts, formaldehyde was added to a final concentration of 4%. Following a further 20-minute incubation at room temperature, the medium was aspirated, the cells were washed twice with 200 µL TBS-T (1x TBS + 0.1% Tween 20) and the nuclei were stained with 50 µL of PBS containing 10% heat inactivated foetal bovine serum, 0.1% Triton-X-100 and 2 µM Hoechst dye. Following a 30-minute incubation at room temperature, protected from light, the cells were washed twice with TBS-T, and cells were counted in 100 µL PBS solution using an ImageXpress Pico system with stitched plate acquisition (4x magnification), DAPI channel (50 ms exposure, -3 digital confocal setting).
When cells grow and divide (termed proliferation), cells progress through the cell cycle, a tightly regulated process that consists of two main activities: DNA replication and mitosis/cell division. As a method of accurately quantifying cellular proliferation rate, the pyrimidine analogue, BrdU can be utilised to measure DNA replication. BrdU can be incorporated into the newly synthesized DNA in place of thymidine. Following incubation of proliferating cells with BrdU for 20 hours, labelling solution was removed thoroughly, and cells were fixed with 70 µL of fix solution for 30 min at room temperature. […] Eu-fluorescence was measured in a time-resolved manner using the PHERAstar FSX (Ex337/ Em620 nm). […]
On the technique in general: Uptake of a labelled nucleoside into DNA is a usual measure of proliferation.

For experiment [3], the system named is collagen-induced arthritis. Put plainly: Mouse collagen-induced arthritis. It counts as in vivo, DBA/1j mice.
Experiment [4] relates to bleomycin-induced lung fibrosis. Put plainly: Mouse bleomycin-induced lung fibrosis. It counts as in vivo, C57BI/6 mice. The conditions noted are these: scale 0-5, Dose (mg/kg/day): Nintedanib 30 b.d., HMC-C-01-A 10 q.d., mean ± s.e.m. As to the method:
Eight- to ten-week-old female C57BI/6 mice were used for all procedures. Animals were housed in groups of 4 and were maintained at 22°C ± 3°C on a 12-hour light/dark cycle with food and water ad libitum. Bleomycin was prepared by dissolving in saline at 1.5 mg/mL. All mice were administered intranasally with 3 mg/kg bleomycin. Seven days after bleomycin administration, vehicle control, nintedanib or MCIM compound administration was initiated. Nintedanib was administered twice daily (b.d.) by oral gavage at a total daily dose of 30 mg/kg/day for 14 days. MCIM compounds were administered once daily (q.d.) by oral gavage at a total daily dose of either 10 or 20 mg/kg/day for 14 days.
On the 14th day, lungs were collected after perfusion. The left lung lobe was assessed for fibrosis by measuring total lung hydroxyproline levels. The right lung lobes were fixed and sectioned for histopathology. […]
The data were analysed by generating an average histopathology score across each treatment group. […]

SMILES strings stand for the structures. “And” between values parts separate entries of the source, which are not always exact repeats. Equal values may be shown once. Marks after values point to notes of the source that are not given here.

Turning to `C=C(C)[C@H]1Cc2c(ccc3c2O[C@@H]2COc4cc(OC)c(OC)cc4[C@@H]2C3=O)O1` [rotenone], the mitochondrial morphology result in experiment [1] was “increased numbers of abnormal mitochondria which were more rounded and had condensed cristae with evidence of fragmentation”. In experiment [2], the “cell proliferation (BRdU incorporation and nucleus counts)” value is reported as “reduce cell proliferation”; the “recovery of cell proliferation after compound washout (BrdU incorporation and nucleus counts)” value was “no recovery”.
Take `Cc1nc(-c2nc(-c3ccc(OC(F)(F)F)cc3)no2)nn1Cc1cccc(N2CCC(S(C)(=O)=O)CC2)c1` [IACS-010759]: in experiment [2], the “cell proliferation (BRdU incorporation and nucleus counts)” value was “reduce cell proliferation”; the “recovery of cell proliferation after compound washout (BrdU incorporation and nucleus counts)” value is reported as “no recovery”.
For `C[C@@H]1CCN(C(=O)CC#N)C[C@@H]1N(C)c1ncnc2[nH]ccc12` [Tofacitinib], in experiment [3] (10 mg/kg/day MCIM compound, 3 mg/kg/day etanercept, Figure 23, tofacitinib data not shown), the “appearance of the osteoid/new bone formed” value was “reactive and sporadic deposits”. In addition, the “Bone resorption (sum) Treatment value” in experiment [3] (once daily for 14 days, Dose (mg/kg/day) as printed: Etanercept 3, HMC-C-01-A 3, all others 10, sum from all limbs per animal per group) was 48**. Moreover, in experiment [3] (osteoid zones, once daily for 14 days, Dose (mg/kg/day) as printed: Etanercept 3, HMC-C-01-A 3, all others 10, sum from all limbs per animal per group), the “Bone formation (sum) Treatment value” amounted to 0.
In the case of `COC(=O)c1ccc2c(c1)NC(=O)/C2=C(\Nc1ccc(N(C)C(=O)CN2CCN(C)CC2)cc1)c1ccccc1` [Nintedanib], in experiment [4] (hyperplasia score, ABD900 20 q.d., two studies), the “AT2 cell number Treatment value” was 1.6 ± 0.2 and 1.1 ± 0.1. Also, the “AT2 cell size Treatment value” in experiment [4] (hypertrophy score) turned out to be 1.6 ± 0.2.

The values above are taken from patent publication EP4431090A1, “SOLFONAMIDES ACTING AS MITOCHONDRIAL COMPLEX I MODULATOR COMPOUNDS” (Istesso 1 Limited, priority 2023, dated 2024).
